Measured values published in PMC9865188 (Pharmaceutics, 2023).
Where two headings read alike, the source gives them in different places.

Experiments:
[1] = cited from earlier work
[2] = Pharmacokinetic study in Sprague Dawley rats (oral gavage); type: in vivo; conditions: for concentration at 15 min / Cmax / AUC(0-t) / bioavailability / half-life: male, rat, plasma; for concentration at 15 min / Cmax: Sprague Dawley; for concentration at 15 min: oral, Etoposide C15min; for Cmax / AUC(0-t) / bioavailability / half-life: po; for Cmax: Etoposide Cmax; for AUC(0-t) / bioavailability / half-life: Sprague-Dawley; for AUC(0-t): Etoposide AUC0–6h; for bioavailability: Etoposide bioavailability; for half-life: Etoposide t½
Procedure: The study was conducted according to the European Convention for the Protection of Vertebrate Animals used for Experimental and other Scientific Purposes (ETS no. 123) and Belgian law controlling the experiments on animals (Royal Decree of 29 May 2013 for the protection of laboratory animals). Animals were allowed minimum five days to acclimatise upon arrival from the supplier, and they were housed in polysulphone cages (58 × 52 × 20 cm) in groups of six provided with wooden sticks for enrichment. Animals had free access to Safe 04 Maintenance Diet (Safe, Rosenberg, Germany) and water during acclimatisation and during the study.
Male Sprague Dawley rats (Charles River, Dortmund, Germany) weighing 293–358 g were randomly assigned into six groups of six animals. Formulations were prepared as clear solutions in 40% v/v ethanol–water and 10 mL/kg was administered to each animal by oral gavage. […] Plasma samples were taken by tail vein puncture with a needle followed by collection in 32–64 µL micro haematocrit tubes (Vitrex Medical, Herlev, Denmark) at times 15, 30, and 45 min and 1, 2, 3, 4, and 6 h. Samples were centrifuged, and plasma was transferred into 10 µL end-to-end pipettes (Vitrex Medical, Herlev, Denmark) and immediately frozen at −80 °C until bioanalysis. Immediately after the study, animals were euthanised according to the principles of euthanasia stated in the AVMA Guidelines for the Euthanasia of Animals (American Veterinary Medical Association, 2020). Plasma samples were analysed by a previously described qualified LC-MS/MS method.
Pharmacokinetic parameters were calculated individually for each animal subject and pooled for statistical analysis. The plasma concentration at 15 min (C15min) was reported as an average of the plasma concentration of the six animals in each group. […] Elimination rate constants (ke) were calculated by linear regression of the linear part of the ln(plasma concentration) versus time profiles, and plasma half-life (t½) was calculated from ke:(3) t½=ln (2)/ke

[3] = target: P-gp (Homo sapiens, UniProt P08183); test: Transcellular etoposide permeability across Caco-2 cell monolayers; conditions: Caco-2, spike method, 2.5 nM zosuquidar vs 2.5 nM zosuquidar + 0.2 µM polysorbate 20
Procedure: All were carried out in four independent cell passages. Transcellular permeability studies were performed in HEPES HBSS pH 7.4 and were assessed in the basolateral (B) to apical (A) and A–B direction for series (1) and (3) and in the B–A direction for series (2). […] Test solutions were either prepared by conventional serial dilution for series (1)–(2) or by a spike method for series (3).
Before the transport experiment, growth medium was removed from the cells by vacuum suction (Vacusip, Integra Biosciences, NH, USA), followed by a 10 min equilibration in HEPES HBSS pH 7.4 on a Talboys 1000 MP incubating microplate shaker (Troemner, NJ, USA, 220 rpm, 37 °C). Then, the buffer was removed, and donor and acceptor solutions were added, with a total of 500 and 1000 µL to the A and B compartment, respectively. […] At 120 min, a sample was taken from the donor compartment and diluted in mobile phase. Samples were analysed by HPLC-FL, and for series (2) and (3), 50 µL sample was transferred to a black, clear-bottom 96-well plate for lucifer yellow quantification.
Papp was calculated by dividing the flux with the measured donor concentration.

[4] = group D*: etoposide 20 mg/kg oral alone
[5] = group F*: etoposide 20 mg/kg + zosuquidar 0.63 mg/kg oral
[6] = group G*: etoposide 20 mg/kg + zosuquidar 2.0 mg/kg oral
[7] = group H*: etoposide 20 mg/kg + zosuquidar 6.3 mg/kg oral
[8] = group B: etoposide 20 mg/kg + zosuquidar 0.63 mg/kg + 1.0% v/v polysorbate 20 oral
[9] = group D: etoposide 20 mg/kg + zosuquidar 2.0 mg/kg + 5.0% v/v polysorbate 20 oral
[10] = group E: etoposide 20 mg/kg + zosuquidar 6.3 mg/kg + 5.0% v/v polysorbate 20 oral
[11] = group F: etoposide 20 mg/kg + zosuquidar 6.3 mg/kg + 10% v/v polysorbate 20 oral
[12] = 20 mg/kg, group A: etoposide 20 mg/kg + 1.0% v/v polysorbate 20 oral
[13] = 20 mg/kg, group C: etoposide 20 mg/kg + 5.0% v/v polysorbate 20 oral
[14] = 20 mg/kg, group B: etoposide 20 mg/kg + zosuquidar 0.63 mg/kg + 1.0% v/v polysorbate 20 oral
[15] = 20 mg/kg, group D: etoposide 20 mg/kg + zosuquidar 2.0 mg/kg + 5.0% v/v polysorbate 20 oral
[16] = 20 mg/kg, group E: etoposide 20 mg/kg + zosuquidar 6.3 mg/kg + 5.0% v/v polysorbate 20 oral
[17] = 20 mg/kg, group F: etoposide 20 mg/kg + zosuquidar 6.3 mg/kg + 10% v/v polysorbate 20 oral

P-gp, sequence (P08183 whole entry): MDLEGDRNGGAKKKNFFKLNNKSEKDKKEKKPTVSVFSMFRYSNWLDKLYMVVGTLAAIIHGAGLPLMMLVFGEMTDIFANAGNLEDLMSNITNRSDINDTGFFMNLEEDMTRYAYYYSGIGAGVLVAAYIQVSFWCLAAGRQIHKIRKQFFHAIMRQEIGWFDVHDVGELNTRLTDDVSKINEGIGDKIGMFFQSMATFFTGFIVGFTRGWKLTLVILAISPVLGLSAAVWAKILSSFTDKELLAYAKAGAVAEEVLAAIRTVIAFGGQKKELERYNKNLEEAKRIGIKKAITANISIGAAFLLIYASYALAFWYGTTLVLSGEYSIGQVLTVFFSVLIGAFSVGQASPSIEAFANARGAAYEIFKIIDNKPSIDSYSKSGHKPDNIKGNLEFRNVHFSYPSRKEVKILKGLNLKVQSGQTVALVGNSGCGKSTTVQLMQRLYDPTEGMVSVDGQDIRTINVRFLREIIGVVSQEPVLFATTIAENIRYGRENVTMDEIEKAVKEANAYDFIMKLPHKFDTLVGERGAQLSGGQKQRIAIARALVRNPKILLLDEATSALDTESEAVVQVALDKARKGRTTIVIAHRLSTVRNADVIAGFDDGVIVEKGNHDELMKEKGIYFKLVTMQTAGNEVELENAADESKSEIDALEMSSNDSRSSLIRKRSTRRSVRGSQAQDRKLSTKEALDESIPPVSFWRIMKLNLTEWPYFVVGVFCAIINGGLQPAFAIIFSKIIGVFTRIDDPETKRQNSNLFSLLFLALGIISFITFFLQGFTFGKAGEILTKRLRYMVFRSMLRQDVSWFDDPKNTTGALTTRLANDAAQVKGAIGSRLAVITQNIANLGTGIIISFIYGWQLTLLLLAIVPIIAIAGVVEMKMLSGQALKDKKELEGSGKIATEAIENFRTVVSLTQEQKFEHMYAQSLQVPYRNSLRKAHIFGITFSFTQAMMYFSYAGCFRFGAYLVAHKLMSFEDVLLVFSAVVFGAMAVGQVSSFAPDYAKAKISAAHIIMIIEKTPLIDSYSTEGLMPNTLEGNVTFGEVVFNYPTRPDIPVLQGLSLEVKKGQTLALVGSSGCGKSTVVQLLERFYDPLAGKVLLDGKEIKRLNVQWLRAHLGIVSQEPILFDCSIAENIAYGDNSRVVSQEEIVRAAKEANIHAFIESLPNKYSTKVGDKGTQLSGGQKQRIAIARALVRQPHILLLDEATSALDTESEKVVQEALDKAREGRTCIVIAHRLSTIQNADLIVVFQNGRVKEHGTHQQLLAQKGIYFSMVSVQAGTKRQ

Etoposide tmax, median [Q1; Q3] ([2]; group A: etoposide 20 mg/kg + 1.0% v/v polysorbate 20 oral): 30 [30;34] min
Etoposide tmax, median [Q1; Q3] [2, 8]: 45 [30;49] min
Etoposide tmax, median [Q1; Q3] ([2]; group C: etoposide 20 mg/kg + 5.0% v/v polysorbate 20 oral): 30 [26;30] min
Etoposide tmax, median [Q1; Q3] [2, 9]: 38 [30;60] min
Etoposide tmax, median [Q1; Q3] [2, 10]: 45 [41;49] min
Etoposide tmax, median [Q1; Q3] [2, 11]: 45 [41;60] min
Etoposide t½ [2, 11]: 56.4 ± 2.2 min
concentration at 15 min [2, 12]: 404 ± 58 ng/mL
concentration at 15 min [2, 13]: 1130 ± 140 ng/mL
concentration at 15 min [2, 8]: 1140 ± 120 ng/mL
concentration at 15 min [2, 9]: 1010 ± 100 ng/mL
concentration at 15 min [2, 10]: 923 ± 103 ng/mL
concentration at 15 min [2, 11]: 579 ± 52 ng/mL
Cmax [2, 12]: 711 ± 86 ng/mL
Cmax [2, 14]: 1750 ± 160 ng/mL
Cmax [2, 13]: 1220 ± 140 ng/mL
Cmax [2, 15]: 1430 ± 180 ng/mL
Cmax [2, 16]: 1300 ± 130 ng/mL
Cmax [2, 17]: 1020 ± 70 ng/mL
AUC(0-t) [2, 12]: 921 ± 84 ng·h/mL
AUC(0-t) [2, 14]: 2610 ± 240 ng·h/mL
AUC(0-t) [2, 13]: 1970 ± 240 ng·h/mL
AUC(0-t) [2, 15]: 3080 ± 380 ng·h/mL
AUC(0-t) [2, 16]: 2800 ± 200 ng·h/mL
AUC(0-t) [2, 17]: 2310 ± 160 ng·h/mL
bioavailability [2, 12]: 5.35 ± 0.49%
bioavailability [2, 14]: 15.2 ± 1.4%
bioavailability [2, 13]: 11.5 ± 1.4%
bioavailability [2, 15]: 17.9 ± 2.2%
bioavailability [2, 16]: 16.3 ± 1.2%
bioavailability [2, 17]: 13.4 ± 1%
half-life [2, 12]: 42.4 ± 2.4 min
half-life [2, 14]: 37.2 ± 1.2 min
half-life [2, 13]: 43.3 ± 2 min
half-life [2, 15]: 52.9 ± 2.8 min
half-life [2, 16]: 54.7 ± 4.5 min
difference in mean etoposide Papp [3]: no difference
SMILES: COc1cc([C@@H]2c3cc4c(cc3[C@@H](O[C@@H]3O[C@@H]5CO[C@@H](C)O[C@H]5[C@H](O)[C@H]3O)[C@H]3COC(=O)[C@H]23)OCO4)cc(OC)c1O [etoposide]
Etoposide AUC0–6h [1, 4]: 947 ± 156 ng·h/mL
Etoposide Cmax [1, 4]: 390 ± 84 ng/mL
Etoposide bioavailability [1, 4]: 5.51 ± 0.91%
Etoposide tmax, median [Q1; Q3] [1, 4]: 15 [15;30] min
Etoposide t½ [1, 4]: 80.8 ± 13.2 min
Etoposide AUC0–6h [1, 5]: 2470 ± 440 ng·h/mL
Etoposide Cmax [1, 5]: 1590 ± 290 ng/mL
Etoposide bioavailability [1, 5]: 14.4 ± 2.5%
Etoposide tmax, median [Q1; Q3] [1, 5]: 45 [15;45] min
Etoposide t½ [1, 5]: 39.3 ± 3.0 min
Etoposide AUC0–6h [1, 6]: 3860 ± 500 ng·h/mL
Etoposide Cmax [1, 6]: 2240 ± 540 ng/mL
Etoposide bioavailability [1, 6]: 22.4 ± 2.9%
Etoposide tmax, median [Q1; Q3] [1, 6]: 38 [26;60] min
Etoposide t½ [1, 6]: 51.4 ± 2.4 min
Etoposide AUC0–6h [1, 7]: 4270 ± 470 ng·h/mL
Etoposide Cmax [1, 7]: 2110 ± 200 ng/mL
Etoposide bioavailability [1, 7]: 24.8 ± 2.7%
Etoposide tmax, median [Q1; Q3] [1, 7]: 45 [15;60] min
Etoposide t½ [1, 7]: 56.5 ± 4.8 min
